PubChem BioAssay (NCI)
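Compound exposure: 48 hours, 5 concentrations, 96-well plates. GI50 is the concentration that inhibits growth by half. TGI: concentration producing complete growth inhibition.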

Assays:
Assay in all cases: NCI anticancer screen, dose series, 48 h
NCI-H460 lung = system: NCI-H460 lung
UACC-257 melanoma = system: UACC-257 melanoma
DMS 114 small cell lung = system: DMS 114 small cell lung
A549 NSCLC = system: A549 NSCLC
NCI-H23 lung = system: NCI-H23 lung
K-562 leukemia = system: K-562 leukemia
SNB-19 CNS = system: SNB-19 CNS
MALME-3M melanoma = system: MALME-3M melanoma
M14 melanoma = system: M14 melanoma
RPMI-8226 leukemia = system: RPMI-8226 leukemia
M19-MEL melanoma = system: M19-MEL melanoma
SW-620 colon = system: SW-620 colon
SK-MEL-28 melanoma = system: SK-MEL-28 melanoma
TK-10 renal = system: TK-10 renal
LXFL 529 NSCLC = system: LXFL 529 NSCLC
LOX IMVI melanoma = system: LOX IMVI melanoma
XF 498 CNS = system: XF 498 CNS
SF-539 CNS = system: SF-539 CNS
HCC-2998 colon = system: HCC-2998 colon
OVCAR-3 ovarian = system: OVCAR-3 ovarian
MOLT-4 leukemia = system: MOLT-4 leukemia
NCI-H226 lung = system: NCI-H226 lung
DLD-1 colon = system: DLD-1 colon
SK-MEL-2 melanoma = system: SK-MEL-2 melanoma
COLO 205 colon = system: COLO 205 colon
KM12 colon = system: KM12 colon
CCRF-CEM leukemia = system: CCRF-CEM leukemia
HOP-18 NSCLC = system: HOP-18 NSCLC
UACC-62 melanoma = system: UACC-62 melanoma
SK-MEL-5 melanoma = system: SK-MEL-5 melanoma
HL-60(TB) leukemia = system: HL-60(TB) leukemia
SK-OV-3 ovarian = system: SK-OV-3 ovarian
IGROV1 ovarian = system: IGROV1 ovarian
A498 renal = system: A498 renal
OVCAR-8 ovarian = system: OVCAR-8 ovarian
NCI-H522 lung = system: NCI-H522 lung
786-0 renal = system: 786-0 renal
HOP-92 NSCLC = system: HOP-92 NSCLC
HCT-15 colon = system: HCT-15 colon
EKVX NSCLC = system: EKVX NSCLC
HT29 colon = system: HT29 colon
SN12C renal = system: SN12C renal
HCT-116 colon = system: HCT-116 colon
KM20L2 colon = system: KM20L2 colon
SNB-75 CNS = system: SNB-75 CNS
U251 CNS = system: U251 CNS
SF-268 CNS = system: SF-268 CNS
OVCAR-5 ovarian = system: OVCAR-5 ovarian
RXF 393 renal = system: RXF 393 renal
UO-31 renal = system: UO-31 renal
ACHN renal = system: ACHN renal
HOP-62 NSCLC = system: HOP-62 NSCLC
DMS 273 small cell lung = system: DMS 273 small cell lung
SNB-78 CNS = system: SNB-78 CNS
OVCAR-4 ovarian = system: OVCAR-4 ovarian
SF-295 CNS = system: SF-295 CNS
CAKI-1 renal = system: CAKI-1 renal

O=C1C(c2ccc(Br)cc2)=[N+]([O-])c2ccccc21
TGI (NCI-H460 lung): 34.8 µM | TGI (UACC-257 melanoma): 24.7 µM | TGI (DMS 114 small cell lung): 12.2 µM | TGI (A549 NSCLC): 41.2 µM | TGI (NCI-H23 lung): 30.4 µM | TGI (K-562 leukemia): 33.5 µM | TGI (SNB-19 CNS): 42.3 µM | TGI (MALME-3M melanoma): 32.7 µM | TGI (M14 melanoma): 29.8 µM | TGI (RPMI-8226 leukemia): > 100 µM | TGI (M19-MEL melanoma): 22.3 µM | TGI (SW-620 colon): 41.5 µM | TGI (SK-MEL-28 melanoma): 35.2 µM | TGI (TK-10 renal): 29.7 µM | TGI (LXFL 529 NSCLC): 18.8 µM | TGI (LOX IMVI melanoma): 21.7 µM | TGI (XF 498 CNS): 31.3 µM | TGI (SF-539 CNS): 34.7 µM | TGI (HCC-2998 colon): 29.3 µM | TGI (OVCAR-3 ovarian): 28.2 µM | TGI (MOLT-4 leukemia): 26.6 µM | TGI (NCI-H226 lung): 35.3 µM | TGI (DLD-1 colon): 25 µM | TGI (SK-MEL-2 melanoma): 57.6 µM | TGI (COLO 205 colon): 32.2 µM | TGI (KM12 colon): 30.4 µM | TGI (CCRF-CEM leukemia): 22.6 µM | TGI (HOP-18 NSCLC): 27.3 µM | TGI (UACC-62 melanoma): 29.7 µM | TGI (SK-MEL-5 melanoma): 21.6 µM | TGI (HL-60(TB) leukemia): 12.4 µM | TGI (SK-OV-3 ovarian): > 100 µM | TGI (IGROV1 ovarian): 33.8 µM | TGI (A498 renal): 56.1 µM | TGI (OVCAR-8 ovarian): 25.1 µM | TGI (NCI-H522 lung): 11.8 µM | TGI (786-0 renal): 30.9 µM | TGI (HOP-92 NSCLC): 20.1 µM | TGI (HCT-15 colon): 23.7 µM | TGI (EKVX NSCLC): 29.5 µM | TGI (HT29 colon): 43.8 µM | TGI (SN12C renal): 29.6 µM | TGI (HCT-116 colon): 27.5 µM | TGI (KM20L2 colon): 38.5 µM | TGI (SNB-75 CNS): 31.4 µM | TGI (U251 CNS): 27.9 µM | TGI (SF-268 CNS): 32.3 µM | TGI (OVCAR-5 ovarian): 35.5 µM | TGI (RXF 393 renal): 31.4 µM | TGI (UO-31 renal): 38.7 µM | TGI (ACHN renal): 26.2 µM | TGI (HOP-62 NSCLC): 68.8 µM

CC(=O)[O-].Cn1ccnc1CNCc1nccn1C.[Cu+2].[O-][Cl+3]([O-])([O-])[O-]
GI50 (NCI-H460 lung): 51.2 µM | TGI (NCI-H460 lung): > 100 µM | GI50 (DMS 114 small cell lung): > 100 µM | TGI (DMS 114 small cell lung): > 100 µM | GI50 (A549 NSCLC): > 100 µM | TGI (A549 NSCLC): > 100 µM | GI50 (NCI-H23 lung): > 100 µM | TGI (NCI-H23 lung): > 100 µM | GI50 (K-562 leukemia): > 100 µM | TGI (K-562 leukemia): > 100 µM | GI50 (SNB-19 CNS): > 100 µM | TGI (SNB-19 CNS): > 100 µM | GI50 (M14 melanoma): > 100 µM | TGI (M14 melanoma): > 100 µM | GI50 (RPMI-8226 leukemia): > 100 µM | TGI (RPMI-8226 leukemia): > 100 µM | GI50 (SW-620 colon): > 100 µM | TGI (SW-620 colon): > 100 µM | GI50 (SK-MEL-28 melanoma): > 100 µM | TGI (SK-MEL-28 melanoma): > 100 µM | GI50 (TK-10 renal): > 100 µM | TGI (TK-10 renal): > 100 µM | GI50 (LXFL 529 NSCLC): > 100 µM | TGI (LXFL 529 NSCLC): > 100 µM | GI50 (DMS 273 small cell lung): > 100 µM | TGI (DMS 273 small cell lung): > 100 µM | GI50 (SNB-78 CNS): > 100 µM | TGI (SNB-78 CNS): > 100 µM | GI50 (LOX IMVI melanoma): > 100 µM | TGI (LOX IMVI melanoma): > 100 µM | GI50 (SF-539 CNS): > 100 µM | TGI (SF-539 CNS): > 100 µM | GI50 (HCC-2998 colon): > 100 µM | TGI (HCC-2998 colon): > 100 µM | GI50 (OVCAR-3 ovarian): > 100 µM | TGI (OVCAR-3 ovarian): > 100 µM | GI50 (MOLT-4 leukemia): > 100 µM | TGI (MOLT-4 leukemia): > 100 µM | GI50 (NCI-H226 lung): > 100 µM | TGI (NCI-H226 lung): > 100 µM | GI50 (DLD-1 colon): > 100 µM | TGI (DLD-1 colon): > 100 µM | GI50 (OVCAR-4 ovarian): 3.1 µM | TGI (OVCAR-4 ovarian): > 100 µM | GI50 (COLO 205 colon): > 100 µM | TGI (COLO 205 colon): > 100 µM | GI50 (KM12 colon): > 100 µM | TGI (KM12 colon): > 100 µM | GI50 (CCRF-CEM leukemia): > 100 µM | TGI (CCRF-CEM leukemia): > 100 µM | GI50 (HOP-18 NSCLC): > 100 µM | TGI (HOP-18 NSCLC): > 100 µM | GI50 (UACC-62 melanoma): 26.9 µM | TGI (UACC-62 melanoma): > 100 µM | GI50 (SK-MEL-5 melanoma): > 100 µM | TGI (SK-MEL-5 melanoma): > 100 µM | GI50 (HL-60(TB) leukemia): > 100 µM | TGI (HL-60(TB) leukemia): > 100 µM | GI50 (SK-OV-3 ovarian): > 100 µM | TGI (SK-OV-3 ovarian): > 100 µM | GI50 (IGROV1 ovarian): > 100 µM | TGI (IGROV1 ovarian): > 100 µM | GI50 (OVCAR-8 ovarian): > 100 µM | TGI (OVCAR-8 ovarian): > 100 µM | GI50 (NCI-H522 lung): > 100 µM | TGI (NCI-H522 lung): > 100 µM | GI50 (786-0 renal): > 100 µM | TGI (786-0 renal): > 100 µM | GI50 (EKVX NSCLC): > 100 µM | TGI (EKVX NSCLC): > 100 µM | GI50 (HT29 colon): > 100 µM | TGI (HT29 colon): > 100 µM | GI50 (SN12C renal): > 100 µM | TGI (SN12C renal): > 100 µM | GI50 (HCT-116 colon): > 100 µM | TGI (HCT-116 colon): > 100 µM | GI50 (KM20L2 colon): > 100 µM | TGI (KM20L2 colon): > 100 µM | GI50 (SNB-75 CNS): > 100 µM | TGI (SNB-75 CNS): > 100 µM | GI50 (U251 CNS): 33.7 µM | TGI (U251 CNS): > 100 µM | GI50 (SF-268 CNS): > 100 µM | TGI (SF-268 CNS): > 100 µM | GI50 (RXF 393 renal): > 100 µM | TGI (RXF 393 renal): > 100 µM | GI50 (SF-295 CNS): 96.9 µM | TGI (SF-295 CNS): > 100 µM | GI50 (HOP-62 NSCLC): > 100 µM | TGI (HOP-62 NSCLC): > 100 µM

NC(=O)c1ccccc1[N+](=O)[O-]
TGI (DMS 114 small cell lung): > 100 µM | TGI (A549 NSCLC): > 100 µM | TGI (K-562 leukemia): > 100 µM | TGI (SNB-19 CNS): > 100 µM | TGI (MALME-3M melanoma): > 100 µM | TGI (RPMI-8226 leukemia): > 100 µM | TGI (M19-MEL melanoma): > 100 µM | TGI (SW-620 colon): > 100 µM | TGI (SK-MEL-28 melanoma): > 100 µM | TGI (DMS 273 small cell lung): > 100 µM | TGI (SNB-78 CNS): > 100 µM | TGI (XF 498 CNS): > 100 µM | TGI (SF-539 CNS): > 100 µM | TGI (HCC-2998 colon): > 100 µM | TGI (OVCAR-3 ovarian): > 100 µM | TGI (MOLT-4 leukemia): > 100 µM | TGI (COLO 205 colon): > 100 µM | TGI (HOP-18 NSCLC): > 100 µM | TGI (UACC-62 melanoma): > 100 µM | TGI (SK-MEL-5 melanoma): > 100 µM | TGI (IGROV1 ovarian): > 100 µM | TGI (A498 renal): > 100 µM | TGI (OVCAR-8 ovarian): > 100 µM | TGI (CAKI-1 renal): > 100 µM | TGI (786-0 renal): > 100 µM | TGI (HOP-92 NSCLC): > 100 µM | TGI (HCT-15 colon): > 100 µM | TGI (EKVX NSCLC): > 100 µM | TGI (HT29 colon): > 100 µM | TGI (SN12C renal): > 100 µM | TGI (HCT-116 colon): > 100 µM | TGI (KM20L2 colon): > 100 µM | TGI (SNB-75 CNS): > 100 µM | TGI (U251 CNS): > 100 µM | TGI (SF-268 CNS): > 100 µM | TGI (ACHN renal): > 100 µM | TGI (HOP-62 NSCLC): > 100 µM
